Results from patent publication US7812142B2, “Pentose derivatives as anti-hyperglycemic drugs” (Yissum Research Development Company of the Hebrew …, priority 2002, dated 2010).
Each block holds one molecule with its values, some of them ahead of it.

Tests used:
3T3-L1 adipocytes = experiment: Screening of methylated xylose derivatives, dGlc uptake assay (Table 1); type: cell-based; conditions: Mean±SEM (n=3-6); for HEXOSE UPTAKE (Percent of Control) Without Insulin: 3T3-L1 adipocytes 24 hr at 20 mM glucose, test compounds 0.1-20.0 mM, 2-45 hr; for HEXOSE UPTAKE (Percent of Control) With Insulin: as E1, 500 nM insulin 30 min prior to uptake assay
Excerpt: There are five carbon atoms in xylose available for chemical modifications. Each of these atoms was methylated by modifications of published chemical procedures [Bollenback, G. N. (1963) In Methods in carbohydrate chemistry, vol. 2 (Whistler, R. L. and Wolfrom, M. L., eds.), pp. 326-331, Academic Press, New York; Bowering, W. and Timel, T. (1958) Can. J. Chem. 36, 283-285; Levine, P. and Raymomd, A. (1933) J. Biol. Chem. 102, 331-344; Takeo, K. (1992) Carbohyd. Res. 224, 311-318]. All compounds were purified by HPLC and their structure verified by NMR spectroscopy. […] At the end of the incubation period the cells were taken for a standard [^3H]-2-deoxy-D-glucose uptake assay in the absence or the presence of 500 nM insulin (30 min exposure prior to the uptake assay).
3T3-L1 adipocytes and L6 myotubes were maintained for 24 hr at 20 mM glucose. Test compounds were added (0.1-20.0 mM) and the cells were incubated further for 2-45 hr. At the end of the incubation periods the cells were washed and taken for a standard [^3H]2-deoxy-D-glucose (dGlc) uptake assay. Uptake values (given for control cells) are in nmol dGlc/mg protein/min. Mean±SEM (n=3-6).
(§1) Uptake assay of the tritiated glucose analogue, 2-deoxy-D-glucose, is routinely performed as described in [Sasson, S. and Cerasi, E. (1986) J. Biol. Chem. 261, 16827-16833].

[1] = system: glucose uptake in cultured cells; experiment: In vitro glucose uptake / hexose transport in cultured cells with xylose derivatives (Table 2); type: cell-based; conditions: for EC50 / ECmax: EC = Effective concentration
Protocol: Table 2 summarizes in vitro results obtained with some of these newly synthesized xylose derivatives.
as §1
All new compounds are screened and tested first in various insulin-sensitive cell cultures used routinely in the laboratory (skeletal muscle and adipose cell lines). In addition these drugs were tested in non-insulin-sensitive cells such as primary cultures of bovine and porcine vascular endothelial and smooth muscle cells. Active compounds were tested ex-vivo on isolated rat soleus muscles. All cell cultures and tissues were maintained under hyperglycemic condition prior to the addition of the test compounds. Dose-response and time-course experiments determine which of the derivatives are subsequently tested in animal models. For each potent compound the total cell content and plasma membrane abundance of GLUT-1 and GLUT-4 was determined, as described above. The same biotinylation technique was employed to determine the total and plasma membrane content of both transporters in isolated mouse or rat soleus muscles treated with potent compounds.

L6 myotubes = experiment: dGlc uptake assay in L6 myotubes; type: cell-based, rat; conditions: for effect of PI3-kinase inhibitor LY-249002 on the substance's stimulation of hexose transport: 60 μM inhibitor, 23.0 mM glucose (FIG. 11A), EH-40 data not shown
Protocol: (§2) FIG. 10: Western blot depicting effect of 3-O-propyl-D-xylose (EH-114), and 1,3-O-dimethylxylopyranoside (EH-101) on the total cell content and plasma membrane abundance of GLUT-4 in the absence or presence of insulin. L6 myotubes were maintained for 48 hr at 23 mM Glucose. The cells were than washed and received fresh medium containing the indicated additions and incubated for additional […]. Insulin was added during the last 30 min of incubation before the dGlc uptake assay.
FIG. 11A: Effect of LY-249002, a PI3-kinase inhibitor, on insulin, D-xylose, EH-101 and EH-114-mediated glucose uptake. L6 myotubes were treated as described in the legend to FIG. 10. The glucose concentration in the culture medium was 23.0 mM. The concentration of LY-294002 was 60 μM. At the end of incubation the cells were taken for the standard dGlc uptake assay. Mean±SEM, n=3.
(§3) GLUT-1 and GLUT-4 mediate glucose entry into L6 myotubes. It is established that GLUT-4 is translocated effectively and rapidly to the plasma membrane upon insulin treatment. The inventors looked at the effect of 3-O-propyl-D-xylose EH-114) and 1,3-O-dimethylxylopyranoside (EH-101) on the total cell content and plasma membrane abundance of these transporters in the absence or presence of insulin. L6 myotubes were maintained at 5.0 or 23.0 mM glucose for 48 hr and EH-114 and EH-101 were present during the last 24 hr. The cells were then taken for the standard [^3H]-2-deoxy-D-glucose uptake assay and for the biotinylation procedure for determining the amount of GLUT-1 and GLUT-4 in the plasma membrane. High glucose levels decreased the hexose transport rate by ˜50%. Insulin augmented the transport nearly 2-fold in both cases. EH-114 and EH-101 increased the transport rate 2-3-fold in the absence of insulin. Together with insulin the uptake rate was increased nearly 3-fold.
The inventors also tested the hypothesis that the active D-xylose derivatives augment the hexose transport capacity in L6 myotubes by translocating GLUT-4 to the plasma membrane not via the common insulin-regulated pathway. For this experiment, a selective inhibitor of the enzyme PI3-kinase, LY-249002, which is a key enzyme in the cellular transduction mechanism of insulin, was utilized. […] These findings also agree well with the longer onset of action of these derivatives as compared to the rapid action of insulin. Similar results were obtained when LY-249002 was present together with the derivatives throughout the entire incubation period.
as §1

GLUT-4 = experiment: Cell surface biotinylation and western blot of GLUT-4 in L6 myotubes; type: cell-based, rat
Protocol: as §2, §3
Surface biotinylation of the cells was performed as previously described [Sasson et al (1997), Diabetologia, 40, 30-398].

PKB = PKB phosphorylation immunoblot in L6 myotubes; type: cell-based, rat; conditions: 23.0 mM glucose; 100 nM insulin, 20 mM xylose, 5 mM EH-114 or 250 μM EH-40, up to 24 hrs (FIG. 11B)
Protocol: FIG. 11B: Effects of insulin D-xylose and xylose derivatives on PKB phosphorylation. L6 myotubes were maintained at 5.5 mM or 23.0 mM glucose. The latter were treated with 100 nM insulin, 20 mM xylose, 5 mM EH-114 or 250 μM EH-40 up to 24 hrs. At the indicated times treated myotubes were collected, homogenized and lysed and the soluble protein fraction was isolated. The control myotubes were collected at the end of the 24 hr incubation period. Equal amounts of proteins of the various treated myotubes were separated on SDS-PAGE and immunoblotted with a specific antibody against phospho-Axt1/PKBα (Ser473). In order to test whether xylose derivative activate insulin transduction elements downstream of PI3K, the inventors tested the state of PKB phosphorylation, as shown in FIG. 11B.

C2 myotubes = experiment: dGlc uptake assay in C2 myotubes; type: cell-based, mouse; conditions: 20 mM pentose, preconditioned with 20 mM glucose (FIG. 7)
Protocol: The time-course of D-xylose effect in two types of skeletal muscle cells (L8 myocytes and C2 myotubes) was studied. L8 myocytes and C2 myotubes preconditioned in 20 mM glucose were incubated with 20 mM xylose. After 90 min the cells were washed and incubated with 20 mM glucose, and subjected to a deoxyglucose dGlc uptake assay (14).
The inventors have also measured the effect of different doses of D-xylose in C2 myotubes. C2 myotubes preconditioned with 20 mM glucose received fresh medium containing 20 mM glucose or increasing concentrations of D-xylose. Standard dGlc uptake assay was performed after 1 hr incubation. […] D-xylose augmented the rate of hexose transport ˜2-fold within 1-2 hr; half-maximal stimulation was observed within 20-30 min, as shown in FIG. 2.
However, in the above experiments the cells were exposed to D-xylose after removal of the conditioning glucose concentration. […] The inventors therefore added 20 mM D-xylose to C2 myotubes in the presence of 8 or 16 mM glucose and followed its effect.
It has shown before by the inventors of the present invention that deoxyglucose (dGlc) depresses the hexose transport system in myocytes and that a subsequent incubation with low (even no) glucose fails to reverse this effect of dGlc [Sasson, S et al (1997)]. The inventors have therefore measured the effect of D-xylose on rate of hexose transport following treatment with dGlc. In one experiment, C2 myotubes preconditioned with 2 mM glucose received fresh medium containing 2 mM dGlc. A portion of the cells were washed after 30 min and received 20 MM D-xylose or 2 mM D-glucose, and subjected to a dGlc uptake assay at different time points. In another experiment, L8 myocytes preconditioned with 2 mM glucose were washed and incubated with 2 mM xylose or 2 mM dGlc. A portion of the cells were washed again after 2 hr and incubated with 20 mM xylose, and subjected to a dGlc uptake assay at different time points.
as §1

glucose transporter = experiment: [3H]dGlc uptake with unlabeled carbohydrates (affinity for the glucose transporter) in C2 myotubes; type: cell-based, mouse; conditions: 0.1 mM dGlc, increasing unlabeled carbohydrate
Protocol: FIG. 6: Lack of affinity of D-xylose for the glucose transporters. C2 myotubes preconditioned with 20 mM glucose were subjected to [^3H]dGlc uptake assay (0.1 mM dGlc) with increasing concentrations of unlabeled dGlc, glucose or xylose. The unlabeled carbohydrates were added to the [^3H]dGlc solution in the uptake assay.
The inventors have also determined the affinity of D-xylose for the glucose transporter. C2 myotubes preconditioned with 20 mM glucose were subjected to [^3H]dGlc uptake assay (0.1 mM dGlc) in the presence of increasing concentrations of unlabeled dGlc, glucose or xylose. The results of these experiments are depicted in FIG. 6. The affinity of D-xylose for the glucose transporter is 2 orders of magnitude lower compared to glucose. The final concentration of dGlc in the assay was 0.1 mM.

Molecule: CO[C@@H]1COC(O)[C@H](O)[C@H]1O (stereo partly drawn) [4-O-methyl xylopyranose]
HEXOSE UPTAKE (Percent of Control) Without Insulin (3T3-L1 adipocytes): 72 ± 112% of Control
HEXOSE UPTAKE (Percent of Control) With Insulin (3T3-L1 adipocytes): 111 ± 2% of Control

EC50 [1]: 2000 µM
effect of PI3-kinase inhibitor LY-249002 on the substance's stimulation of hexose transport (L6 myotubes): failed to affect
Molecule: COC1OC[C@@H](O)[C@H](OC)[C@H]1O (stereo partly drawn) [EH-101, 1,3-O-dimethyl xylopyranoside]
HEXOSE UPTAKE (Percent of Control) Without Insulin (3T3-L1 adipocytes): 267 ± 57% of Control
HEXOSE UPTAKE (Percent of Control) With Insulin (3T3-L1 adipocytes): 174 ± 28% of Control
Fold Increase of Glucose Uptake [1]: 3.0 fold
ECmax [1]: 4 mM
duration of activity following removal from the culture media ([1]; after being washed from cell cultures): 24 h
increase of uptake rate together with insulin (L6 myotubes; L6 myotubes, compound during last 24 hr plus insulin): ~3 fold
total cell content of GLUT-4 (GLUT-4; L6 cells exposed to 23.0 mM glucose (FIG. 10)): increased the total content of the transporter
translocation of GLUT-4 to the plasma membrane (GLUT-4; L6 myotubes, xylose derivatives in the absence of insulin, insulin 500 nM (FIG. 10)): induced significant translocation of GLUT-4 to the plasma membrane

effect of PI3-kinase inhibitor LY-249002 on the substance's stimulation of hexose transport (L6 myotubes): abolished
Molecule: CCSC(SCC)[C@@H]1OC(c2ccccc2)O[C@H](CO)[C@@H]1O (stereo partly drawn) [EH-40, 2,4-benzylidene-D-xylose-diethyl-dithioacetal]
PKB phosphorylation (PKB): time-dependent and sustained phosphorylation

EC50 [1]: 1300 µM
Molecule: CCO[C@@H]([C@H](O)CO)[C@@H](O)C=O [3-O-ethyl D-xylose]
Fold Increase of Glucose Uptake [1]: 2.3 fold
ECmax [1]: 4 mM

Molecule: O=C[C@@H](O)[C@@H](O)[C@H](O)CO [D-lyxose]
effect of pentoses on the rate of hexose transport (C2 myotubes): to a lesser extent

EC50 [1]: 125 µM
Molecule: COC(OC)[C@@H]1OC(c2ccccc2)O[C@@H]2COC(c3ccccc3)O[C@@H]21 (stereo partly drawn) [EH-3, 2,4:3,5-di-O-benzylidene-D-xylose-dimethylacetal]
Fold Increase of Glucose Uptake [1]: 1.7 fold
ECmax [1]: 0.3 mM

Molecule: CCS[C@@H]1OC[C@@H](O)[C@H](O)[C@H]1O [EH-143, β-ethylthio-D-xylopyranoside]
hexose transport augmenting activity of thioalkyl derivatives [1]: hexose transport augmenting activity

EC50 [1]: 300 µM
Molecule: di-4-(1-O-methyl-xylopyranoside)-phosphoryl-PEG-O-methyl [1-O-methyl D-xylose-PEG]
Fold Increase of Glucose Uptake [1]: 1.9 fold
ECmax [1]: 0.6 mM

EC50 [1]: 6000 µM
Molecule: COC1OC[C@@H](O)[C@H](O)[C@H]1O (stereo partly drawn) [1-O-methyl xylopyranoside]
HEXOSE UPTAKE (Percent of Control) Without Insulin (3T3-L1 adipocytes): 154 ± 4% of Control
HEXOSE UPTAKE (Percent of Control) With Insulin (3T3-L1 adipocytes): 156 ± 24% of Control
Fold Increase of Glucose Uptake [1]: 1.5 fold
ECmax [1]: 10 mM

Molecule: CO[C@H]1C(O)OC[C@@H](O)[C@@H]1O (stereo partly drawn) [2-O-methyl xylopyranose]
HEXOSE UPTAKE (Percent of Control) Without Insulin (3T3-L1 adipocytes): 63 ± 7% of Control
HEXOSE UPTAKE (Percent of Control) With Insulin (3T3-L1 adipocytes): 73 ± 15% of Control

Molecule: CCSC(SCC)C1OC(c2ccccc2)OC(CO)C1OC [EH-169, 3-O-methyl-2,4-O-benzylidene-D-xylose-diethyl-dithioacetal]
increase of [3H]-2-deoxy-D-glucose uptake (L6 myotubes; 60 μM): 1.8 fold
increase of [3H]-2-deoxy-D-glucose uptake (L6 myotubes; 120 μM): 2 fold

Molecule: O=C[C@H](O)[C@H](O)[C@H](O)CO [D-ribose]
effect of pentoses on the rate of hexose transport (C2 myotubes): to a lesser extent

Molecule: COC1OC[C@@H](OC)[C@H](OC)[C@H]1OC (stereo partly drawn) [1,2,3,4-O-tetramethyl xylopyranoside]
HEXOSE UPTAKE (Percent of Control) Without Insulin (3T3-L1 adipocytes): 95 ± 7% of Control
HEXOSE UPTAKE (Percent of Control) With Insulin (3T3-L1 adipocytes): 104 ± 8% of Control

Molecule: O=CC[C@@H](O)[C@H](O)[C@H](O)CO [dGlc, 2-deoxy-D-glucose]
competition with [3H]dGlc (glucose transporter): competed markedly and similarly

EC50 [1]: 2000 µM
Molecule: CO[C@H]1[C@H](O)COC(O)[C@@H]1O (stereo partly drawn) [3-O-methyl xylopyranose]
HEXOSE UPTAKE (Percent of Control) Without Insulin (3T3-L1 adipocytes): 201 ± 30% of Control
HEXOSE UPTAKE (Percent of Control) With Insulin (3T3-L1 adipocytes): 159 ± 7% of Control
Fold Increase of Glucose Uptake [1]: 2.0 fold
ECmax [1]: 4 mM

Molecule: COC[C@H]1OC(O)[C@H](O)[C@H]1O (stereo partly drawn) [5-O-methyl xylofuranose]
HEXOSE UPTAKE (Percent of Control) Without Insulin (3T3-L1 adipocytes): 70 ± 5% of Control
HEXOSE UPTAKE (Percent of Control) With Insulin (3T3-L1 adipocytes): 53 ± 22% of Control
